Test: Anticancer human tumor 997537-175-T-J1-PDC patient-derived colon adenocarcinoma cell line growth inhibition [POLQ]
Settings: 997537-175-T-J1-PDC complex spheroid viability, combination with POLQ inhibitors; for IC50: curve of first compound; for viability, T/C: stronger effect = lower value
In short: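 Complex spheroid viability model combining PDC tumour cells with endothelial (HUVEC) and MSC stromal cells. Novobiocin, ART-558 or RP6685 were tested singly and in combination with standard and investigational anticancer drugs. Each was titrated in half-log steps from near clinical Cmax, or from 10 microM where Cmax was unknown.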

[1] = second compound 0.0316 µM, first compound 0.0316 µM
[2] = second compound 0.0316 µM, first compound 0.1 µM
[3] = second compound 0.0316 µM, first compound 0.316 µM
[4] = second compound 0.0316 µM, first compound 1 µM
[5] = second compound 0.0316 µM, first compound 3.16 µM
[6] = second compound 0.0316 µM, first compound 10 µM
[7] = second compound 0.1 µM, first compound 0.0316 µM
[8] = second compound 0.1 µM, first compound 0.1 µM
[9] = second compound 0.1 µM, first compound 0.316 µM
[10] = second compound 0.1 µM, first compound 1 µM
[11] = second compound 0.1 µM, first compound 3.16 µM
[12] = second compound 0.1 µM, first compound 10 µM
[13] = second compound 0.316 µM, first compound 0.0316 µM
[14] = second compound 0.316 µM, first compound 0.1 µM
[15] = second compound 0.316 µM, first compound 0.316 µM
[16] = second compound 0.316 µM, first compound 1 µM
[17] = second compound 0.316 µM, first compound 3.16 µM
[18] = second compound 0.316 µM, first compound 10 µM
[19] = second compound 1 µM, first compound 0.0316 µM
[20] = second compound 1 µM, first compound 0.1 µM
[21] = second compound 1 µM, first compound 0.316 µM
[22] = second compound 1 µM, first compound 1 µM
[23] = second compound 1 µM, first compound 3.16 µM
[24] = second compound 1 µM, first compound 10 µM
[25] = second compound 3.16 µM, first compound 0.0316 µM
[26] = second compound 3.16 µM, first compound 0.1 µM
[27] = second compound 3.16 µM, first compound 0.316 µM
[28] = second compound 3.16 µM, first compound 1 µM
[29] = second compound 3.16 µM, first compound 3.16 µM
[30] = second compound 3.16 µM, first compound 10 µM
[31] = second compound 10 µM, first compound 0.0316 µM
[32] = second compound 10 µM, first compound 0.1 µM
[33] = second compound 10 µM, first compound 0.316 µM
[34] = second compound 10 µM, first compound 1 µM
[35] = second compound 10 µM, first compound 3.16 µM
[36] = second compound 10 µM, first compound 10 µM
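Further: luminescence signal used as a surrogate for viable cells; spheroids exposed to drugs for seven days before readout.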

CNCc1ccc(-c2[nH]c3cc(F)cc4c3c2CCNC4=O)cc1 + COC1C(OC(N)=O)C(O)C(Oc2ccc3c(O)c(NC(=O)c4ccc(O)c(CC=C(C)C)c4)c(=O)oc3c2C)OC1(C)C
IC50 (second compound 0.0316 µM): > 10 µM | IC50 (second compound 0.1 µM): > 10 µM | IC50 (second compound 0.316 µM): > 10 µM | IC50 (second compound 1 µM): > 10 µM | IC50 (second compound 3.16 µM): > 10 µM | IC50 (second compound 10 µM): > 10 µM | viability, T/C [1]: 104% | viability, T/C [2]: 96.7% | viability, T/C [3]: 90.3% | viability, T/C [4]: 97.5% | viability, T/C [5]: 101% | viability, T/C [6]: 104% | viability, T/C [7]: 102% | viability, T/C [8]: 97% | viability, T/C [9]: 80.2% | viability, T/C [10]: 97.9% | viability, T/C [11]: 103% | viability, T/C [12]: 106% | viability, T/C [13]: 100% | viability, T/C [14]: 101% | viability, T/C [15]: 93.6% | viability, T/C [16]: 87% | viability, T/C [17]: 95.5% | viability, T/C [18]: 78.3% | viability, T/C [19]: 94.7% | viability, T/C [20]: 101% | viability, T/C [21]: 101% | viability, T/C [22]: 92.8% | viability, T/C [23]: 99.3% | viability, T/C [24]: 84.1% | viability, T/C [25]: 97.8% | viability, T/C [26]: 98.1% | viability, T/C [27]: 104% | viability, T/C [28]: 101% | viability, T/C [29]: 85.8% | viability, T/C [30]: 86.8% | viability, T/C [31]: 99.5% | viability, T/C [32]: 95.9% | viability, T/C [33]: 105% | viability, T/C [34]: 96.6% | viability, T/C [35]: 97.5% | viability, T/C [36]: 90.3%

O=C(c1cc(Cc2n[nH]c(=O)c3ccccc23)ccc1F)N1CCN(C(=O)C2CC2)CC1 + COC1C(OC(N)=O)C(O)C(Oc2ccc3c(O)c(NC(=O)c4ccc(O)c(CC=C(C)C)c4)c(=O)oc3c2C)OC1(C)C
IC50 (second compound 0.0316 µM): > 10 µM | IC50 (second compound 0.1 µM): > 10 µM | IC50 (second compound 0.316 µM): > 10 µM | IC50 (second compound 1 µM): > 10 µM | IC50 (second compound 3.16 µM): > 10 µM | IC50 (second compound 10 µM): > 10 µM | viability, T/C [1]: 98.2% | viability, T/C [2]: 99.8% | viability, T/C [3]: 99.1% | viability, T/C [4]: 88.3% | viability, T/C [5]: 93% | viability, T/C [6]: 101% | viability, T/C [7]: 73.7% | viability, T/C [8]: 91.7% | viability, T/C [9]: 101% | viability, T/C [10]: 106% | viability, T/C [11]: 99% | viability, T/C [12]: 101% | viability, T/C [13]: 105% | viability, T/C [14]: 112% | viability, T/C [15]: 98.9% | viability, T/C [16]: 96.8% | viability, T/C [17]: 100% | viability, T/C [18]: 107% | viability, T/C [19]: 100% | viability, T/C [20]: 98% | viability, T/C [21]: 110% | viability, T/C [22]: 92.7% | viability, T/C [23]: 77.1% | viability, T/C [24]: 96.3% | viability, T/C [25]: 101% | viability, T/C [26]: 95.1% | viability, T/C [27]: 94.7% | viability, T/C [28]: 86% | viability, T/C [29]: 95.8% | viability, T/C [30]: 96.9% | viability, T/C [31]: 102% | viability, T/C [32]: 78% | viability, T/C [33]: 104% | viability, T/C [34]: 98.5% | viability, T/C [35]: 91.7% | viability, T/C [36]: 107%
